According to US20050070601A1, “Psychostimulant Effects of Forskolin Including Anorexia” (CREATIVE COMPOUNDS, LLC, priority 2003, published 2005):
Values joined by “and” are separate entries in the source; they are usually repeats but may differ in a detail not shown here. Equal values may be shown once.

Key:
Test subjects = assay: Experimenting with higher daily dosages: psychostimulant effect in test subjects; assay type: in vivo, human
Experimental: While experimenting with forskolin in much higher daily dosages, the inventors discovered new and as yet undiscovered uses for forskolin and Coleus forskohli and its extracts. The novel effects became quite evident and noticeable upon administering 150 mg per day of forskolin in the form of a 20% Coleus forskohli extract. […] The dosages of forskolin that precipitate the best psychostimlant properties seem to be above 100 mg but can be below this level for some highly sensitive people.

humans = assay: Test of forskolin as anorectic agent in humans; parameters: species or system human; details: in vivo
Experimental: Because nearly all psychostimulants have been or are being used as extremely effective appetite suppressants, the inventors decided to test the hypothesis that forskolin would be an effective anorectic agent. […] This anorectic effect is dose dependent and works increasingly until the dosage of 500 mg per day of forskolin. Most tested individuals noticed the appetite suppression effects above 75 mg per day of forskolin; however, a few individuals noticed slight effects down to 30 mg per day.

[1] = test system: overweight individuals who claimed to have a problem controlling their appetite; assay: Appetite suppression: self-rated level of appetite before and after administration (Example 2); assay type: in vivo, human
Experimental: The forskolin was administered three times per day for five days. Subjects were asked to evaluate the level of their appetite from a scale of 1 to 10 (10 being the greatest). […] Some of the subjects even reported that they felt no desire to eat within 30 minutes after administration even though before administration they felt “extremely hungry”.

individuals = assay: Psychostimulant effect: self-rated wakefulness/alertness before and one hour after administration (Example 1); assay type: in vivo, human; details: scale of 1 to 10 (10 greatest), one value per subject, average of three days, 100 mg twice daily as 40% Coleus forskohli extract capsules
Experimental: The forskolin was administered one hour after waking and one hour before bedtime. Subjects were asked to evaluate their level of wakefulness/alertness on a scale of 1 to 10 (10 being the greatest) both before administration and one hour after administration. […] All of the subjects perceived an increase in their level of wakefulness/alertness both in the morning and in the evening. These times were chosen due to the fact that most people have a greater degree of sleepiness or a greater degree of having problems with mental alertness during these times of the day.

[2] = scale of 1 to 10 (10 greatest), after dose, one value per subject, average of five days, 100 mg sixty minutes before meals, three times per day, 40% extract capsules
[3] = scale of 1 to 10 (10 greatest), before dose, one value per subject, average of five days, 100 mg sixty minutes before meals, three times per day, 40% extract capsules

For `C=C[C@@]1(C)CC(=O)[C@]2(O)[C@@]3(C)[C@@H](O)CCC(C)(C)[C@@H]3[C@H](O)[C@H](OC(C)=O)[C@@]2(C)O1` [forskolin, Forskolin], the “dosages that precipitate the best psychostimulant properties” value (Test subjects; can be below this level for some highly sensitive people) was “above 100 mg”, the “untoward central nervous system stimulating effects (jitteriness, nervousness, increased blood pressure, heart rate or respiratory rate)” value (Test subjects; human, in vivo) was “did not cause any untoward central nervous system stimulating effects” and the “dosage above which most tested individuals noticed the appetite suppression effects” value (humans) was “above 75 mg per day”. For the same molecule, the “dosage down to which a few individuals noticed slight appetite suppression effects” value (humans) was at least 30 mg per day, the “dosage until which the dose dependent anorectic effect works increasingly” value (humans) was at most 500 mg per day and the “AB: level of appetite, Breakfast, After Administration” value [1, 2] was 5 and 3 and 4. For the same molecule, the “AD: level of appetite, Dinner, After Administration” value [1, 2] was 8 and 3 and 5, the “AL: level of appetite, Lunch, After Administration” value [1, 2] was 7 and 3 and 5 and the “BB: level of appetite, Breakfast, Before Administration” value [1, 3] was 6 and 8 and 4. The “BD: level of appetite, Dinner, Before Administration” value [1, 3] was 9 and 10 and 7, the “BL: level of appetite, Lunch, Before Administration” value [1, 3] was 9 and 10 and 8 and the “time after administration within which some subjects felt no desire to eat” value ([1]; some of the subjects, "extremely hungry" before administration) was at most 30 min. The “MBA: level of wakefulness/alertness, morning, before administration” value (individuals; baseline before dose) was 3 (2×) and 2 and 7 (2×), the “EBA: level of wakefulness/alertness, evening, before administration” value (individuals; before evening dose) was 6 (2×) and 5 and 7 (2×) and the “EAA: level of wakefulness/alertness, evening, after administration” value (individuals; one hour after administration) was 7 and 9 and 5 and 10 and 8. For the same molecule, the “MAA: level of wakefulness/alertness, morning, after administration” value (individuals; one hour after administration) was 5 (2×) and 7 and 8 and 10.
